Measured values: article PMC5504357, “Antifungal Potential of Copper(II), Manganese(II) and Silver(I) 1,10-Phenanthroline Chelates Against Multidrug-Resistant Fungal Species Forming the Candida haemulonii Complex: Impact on the Planktonic and Biofilm Lifestyles” (Frontiers in Microbiology, 2017)

Tests used:
A549 cells = test: Mammalian cell toxicity (MTT assay) and selectivity index; format: cell-based, Human; settings: MTT, 48 h incubation
Outline: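 A549 cells were exposed to compounds (0.0313–512 μg/mL) in DMEM for 48 h at 37 °C, 5% CO2. Viability was measured by MTT (3 h, dark), with formazan dissolved in DMSO and read at 450 nm. CC50 was derived, and SI calculated as A549 CC50 divided by C. haemulonii complex GM-MIC.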

Candida haemulonii = test: Planktonic growth, broth microdilution (CLSI M27-A3), MIC; format: cell-based; settings: for GM-MIC: geometric mean of three C. haemulonii isolates; for MIC: planktonic, 48 h, 37°C
Outline: (§1)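 Three clinical isolates per species (nail, blood, urine origin), grown in Sabouraud-dextrose 48 h at 37°C, were tested by CLSI M27-A3 broth microdilution in RPMI 1640 over 0.0625-32 mg/L. After 48 h at 37°C, MIC was the lowest concentration with no visible growth; the across-isolate value is a geometric mean MIC.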

[1] = test system: Candida haemulonii var. vulnera; test: as above; format: cell-based; settings: for GM-MIC: geometric mean of three C. haemulonii var. vulnera isolates; for MIC: planktonic, 48 h, 37°C
Outline: as §1

Candida duobushaemulonii = test: as above; format: cell-based; settings: for GM-MIC: geometric mean of three C. duobushaemulonii isolates; for MIC: planktonic, 48 h, 37°C
Outline: as §1

Compound | A549 (CC50) (A549 cells) | GM-MIC (Candida haemulonii) | MIC (Candida haemulonii; isolate LIP Ch4) | MIC (Candida haemulonii; isolate LIP Ch7) | MIC (Candida haemulonii; isolate LIP Ch12) | GM-MIC [1] | MIC ([1]; isolate LIP Ch5) | MIC ([1]; isolate LIP Ch9) | MIC ([1]; isolate LIP Ch11) | GM-MIC (Candida duobushaemulonii) | MIC (Candida duobushaemulonii; isolate LIP Ch1) | MIC (Candida duobushaemulonii; isolate LIP Ch6) | MIC (Candida duobushaemulonii; isolate LIP Ch8)
{[Cu(3,6,9-tdda)(phen)2].3H2O.EtOH}n [compound 7] | 1.06 µg/mL | 3.17 µg/mL | 4 µg/mL | 4 µg/mL | 2 µg/mL | 2.52 µg/mL | 2 µg/mL | 2 µg/mL | 4 µg/mL | 2 µg/mL | 2 µg/mL | 2 µg/mL | 2 µg/mL
CCO.O=C([O-])COCCOCCOCC(=O)[O-].[Ag+].[Ag+].c1cnc2c(c1)ccc1cccnc12.c1cnc2c(c1)ccc1cccnc12.c1cnc2c(c1)ccc1cccnc12.c1cnc2c(c1)ccc1cccnc12 [compound 16, [Ag2(3,6,9-tdda)(phen)4].EtOH] | 2.21 µg/mL | 1 µg/mL | 1 µg/mL | 1 µg/mL | 1 µg/mL | 0.79 µg/mL | 1 µg/mL | 0.5 µg/mL | 1 µg/mL | 1.26 µg/mL | 2 µg/mL | 1 µg/mL | 1 µg/mL
